# Experimental data as given in patent US5663154A, “2',3'-dideoxy-3'-fluoro-purine ribonucleosides” (Glaxo Wellcome Inc., priority 1992, dated 1997).
# Where “and” joins values, the source holds several entries; their conditions need not be identical. Equal entries are not always repeated.
# How the values were obtained:
# Hepatitis B Virus (HBV) = experiment: Antiviral activity against HBV: extracellular HBV DNA from HepG2 2.2.15 cells; type: cell-based, human HBV; conditions: culture medium, treated at 25 μm (so in the source)
# Experimental: Anti-HBV activity of compounds of formula (I) was determined using a method described by Korba B. E. and Milman G., Antiviral Research, 1991, Vol.15, pp217-228.
# The assay utilises the human HBV producer cell line of HepG2, 2.2.15, described and characterized by Sells et al., PNAS 84, 1005 (1987) and J. Virol. […] This cell line was utilized in vitro to identify compounds with anti-HBV activity.
# Supernatant media containing extracellular virion DNA (Dane particles) were harvested on days 0, 4 and 9, treated with proteinase K (1 mg/mL) and sodium dodecyl sulfate (1%), and incubated at 50° C. for one hour. DNA was extracted with equal volumes of phenol followed by chloroform and then precipitated using ammonium acetate and propanol. […] After precipitation by ammonium acetate and propanol, the intracellular DNA precipitate was dissolved, cut by restriction endonuclease, Hind III, applied co agarose gel and then treated as described by Southern to determine the quantity of replicative intermediate forms. The antiviral effect of the drug was determined by measuring at least a 100-fold reduction in the amount of Dane particles extruded into the culture medium and a similar decrease in the intracellular replicative intermediates.
# HIV = experiment: Antiviral activity against HIV: reversal of cytopathic effect in MT4 cells, propidium iodide dye uptake; type: cell-based; conditions: Human immunodeficiency virus 1, 120 h, HIV-1 (strain 3B) or HIV-2 (Zagury strain), not stated which, 5 days
# Experimental: Anti-HIV activity of compounds of formula (I) was determined using the method of Averett D. R., 1989, J. Virol. Methods, 23, pp263-276, by measuring the ability of the compound to reverse the cytopathic effect of HIV infection. This was determined by a quantitative assessment of cell growth monitored at the fifth day post infection by a propidium iodide dye uptake test. MT4 cells were incubated with 100XTCID50 of HIV-1 (strain 3B) or HIV-2 (Zagury strain) for one hour prior to addition of the compound in six different concentrations varying from 2 to 200 μM. The cells were allowed to incubate for five days at 37° C. On day 5, NP-40, a detergent, was added to a final concentration of 0.5% immediately prior to analysis. Cell number was determined using a method which measures the fluorescence of a dye (propidium iodide) which binds to DNA. Since the amount of DNA is directly proportional to cell number, this fluorescence assay is an indication of cell growth. While uninfected cells double in cell number several times during the five days duration of the assay, HIV-infected cells grow very little, if at all. A compound which reverses the cytopathic effect of HIV would allow for rapid cell growth, approaching that of the mock-infected cells. […]
structure (smiles),measurement,setting,value
"CN(C)c1nc(N)nc2c1ncn2[C@H]1C[C@H](F)[C@@H](CO)O1 [Example 13, 2-Amino-9-(2,3-dideoxy-3-fluoro-β-D-erythro-pentofuranosyl)-6-(dimethylamino)-9H-purine]","Extracellular HBV DNA, Day 0",Hepatitis B Virus (HBV); Day 0,60 pg/mL and 99 pg/mL and 77 pg/mL and 67 pg/mL
same,"Extracellular HBV DNA, Day 4",Hepatitis B Virus (HBV); Day 4,57 pg/mL and 33 pg/mL and 53 pg/mL and 51 pg/mL
same,IC50,HIV,8 µM
